Read-outs that look alike come from different tables or passages of the source. Marks after values point to notes of the source that are not given here.
Key:
[1] = test system: Male Hartley guinea pigs; test: Antigen-induced bronchial hyperresponsiveness; format: in vivo, guinea pig; conditions: for Log PD200: acetylcholine dose for 200% increase in bronchoconstriction; for induction of bronchial hyperresponsiveness (in words): summary of Tables 34-36
Method: Antigen-induced bronchial hyperresponsiveness
Male Hartley guinea pigs were actively sensitized to ovalbumin (OVA) by inhalation of aerosolized solution of 1% ovalbumin twice at a week interval. One week after the second sensitization, the animals were treated with antihistamine, diphenhydramine (10 mg/kg, i.p.), and then challenged with 1% OVA aerosol for 5 min. Twenty four hours later, acetylcholine at doses at 3.13, 6. 25, 12.5, 25, 50 and 100 micro g/kg was sequentially injected into the animals which were anesthetized with pentobarbital (30 mg/kg, i.p.). The bronchoconstriction induced by each dose of acetylcholine was monitored by the modified method of Konzett-Rössler technique, and made a dose-response curve of acetylcholine. Using the dose-response curve, the dose required for 200% increase in bronchoconstriction from baseline (PD200) was calculated in each animal and used as an indication of bronchial responsiveness. Compounds were orally administered 1 hour before antigen challenge. **: P<0.01 vs Vehicle(Dunnett's test), ##: P<0.01 vs Vehicle(Student's t test).

[2] = test system: Male Hartley guinea pigs; test: Antigen-induced increase in the eosinophil number in bronchoalveolar lavage fluid; format: in vivo, guinea pig; conditions: for Eosinophils, inhibition % / Total cells, inhibition % / Cell number, Eosinophils / Cell number, Total cells: 10 mg/kg orally, 1 hour before and 24 and 48 hours after challenge; for Cell number, Eosinophils / Cell number, Total cells: BAL 72 hours; for eosinophil infiltration (in words): summary of Tables 37-39
Method: Antigen-induced increase in the eosinophil number in bronchoalveolar lavage fluid.
As described above, the animals were sensitized and challenged with antigen, seventy-two hours later, bronchoalveolar lavage was performed with 10 mL of saline. After the number of total cells in the recovered fluid was counted, smear samples were made. The samples were stained with May Grünward-Giemsa Stain, and differential cell count was performed by counting 500 cells/each sample. The eosinophil number was calculated by the ratio of the number of eosinophils, macrophages, neutrophils and lymphocytes. Compounds were orally administered three times 1 hour before and 24 and 48 hours after the challenge. The results are shown as follows. *: P<0.05, * *: P<0.01 vs Vehicle(Dunnett's test), : P<0. 01 vs Vehicle(Student's t test). ( ): inhibition %.

[3] = test system: Male Hartley guinea pigs; test: Antigen-induced bronchoconstriction; format: in vivo, guinea pig; conditions: for antigen-induced bronchoconstriction (in words): summary of Tables 40-42
Method: Antigen-induced bronchoconstriction
Male Hartley guinea pigs were passively sensitized by intravenous injection of anti-OVA serum (antibody titer: 1: 3200), and 48 hours later, the animals were challenged by intravenous injection of OVA (70 micro g/kg). The bronchoconstriction induced by antigen was continuously monitored by means of modified method of Konzett-Rössler technique. The peak value of bronchoconstriction in each animal was used for evaluation of compounds. Compound (I-1b) and compound (B-2) were orally administered 1 hour before, compound (A) 2 hours before antigen challenge. The results are shown as follows. *: P<0.05 vs Vehicle, ##: P<0.01 vs Vehicle. ( ): inhibition %.

[4] = target: T1, TXA2 receptor (Homo sapiens, UniProt P21731); test: Binding activity to TXA2 receptor in human platelet membrane fraction ([3H](+)-S-145 sodium salt)
T1 construct: The human platelet membrane fraction was prepared in accordance with Experiment 1 (1); from tissue; host or cells: human platelet membrane fraction from blood of healthy volunteers
T1 sequence (P21731 1-343): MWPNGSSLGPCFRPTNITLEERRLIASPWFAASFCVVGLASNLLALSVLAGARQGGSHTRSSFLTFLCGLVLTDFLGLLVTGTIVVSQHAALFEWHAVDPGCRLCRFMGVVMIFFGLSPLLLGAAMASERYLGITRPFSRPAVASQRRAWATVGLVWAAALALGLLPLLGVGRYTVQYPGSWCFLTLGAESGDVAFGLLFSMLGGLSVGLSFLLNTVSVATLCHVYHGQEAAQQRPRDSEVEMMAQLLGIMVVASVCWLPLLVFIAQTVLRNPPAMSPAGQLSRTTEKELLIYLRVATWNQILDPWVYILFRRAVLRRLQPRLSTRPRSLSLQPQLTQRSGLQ
Method: Experiment 2 Binding activity to TXA2 Receptor
(§1) (1) Preparation of Human Platelet Membrane Fraction
The human platelet membrane fraction was prepared in accordance with Experiment 1 (1).
(2) Binding to TXA2 Receptor
To a binding-reaction solution (50 mM Tris/HCl, pH 7.4, 10 mM MgCl2) (0.2 ml) were added the human platelet membrane fraction (0.05 mg) and 2 nM Sodium [^3H](+)-(5Z)-7- [3-endo- [(phenylsulfonyl)amino]bicyclo[2.2.1]hept-2-exo-yl]heptenoate (Japanese Patent Publication (Kokoku) No.79060/1993, hereinafter referred to as (+)—S—145 sodium salt) (26.4 Ci/mmol), and the mixture was reacted at room temperature for 90 min. After the reaction, the resultant mixture was filtered through a glass fiber filter paper and washed several times with cooled physiological saline, then the radioactivity retained on the filter paper was measured. The specific-binding ratio was calculated by subtracting the non-specific binding ratio (the radio activity similarly determined in the presence of 10 μM (+)—S—145 sodium salt) from the total binding.

[5] = target: T2, PGD2 receptor (Homo sapiens, UniProt Q13258); test: Antagonistic activity against PGD2 receptor using human platelet (inhibition of cAMP increase caused by PGD2); format: cell-based
T2 sequence (Q13258 1-359): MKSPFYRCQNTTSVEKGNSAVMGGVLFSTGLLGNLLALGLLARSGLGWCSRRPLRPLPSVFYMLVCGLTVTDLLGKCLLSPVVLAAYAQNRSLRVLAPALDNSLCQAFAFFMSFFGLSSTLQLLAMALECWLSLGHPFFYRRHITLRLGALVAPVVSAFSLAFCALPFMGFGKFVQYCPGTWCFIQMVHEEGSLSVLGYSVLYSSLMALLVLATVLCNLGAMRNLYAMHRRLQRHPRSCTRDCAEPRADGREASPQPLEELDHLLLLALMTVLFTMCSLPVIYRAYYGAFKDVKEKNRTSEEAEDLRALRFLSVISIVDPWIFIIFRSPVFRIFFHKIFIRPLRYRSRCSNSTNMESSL
Method: Experiment 3 Evaluation of Antagonistic Activity Against PGD2 Receptor Using Human Platelet
Peripheral blood was collected from a healthy volunteer using a syringe in which 1/9 volume of a citric acid/dextrose solution was previously added. The sample was subjected to centrifugation at 180 g for 10 min to obtain the supernatant (PRP: platelet rich plasma). The resultant PRP was washed 3 times with a washing buffer and the number of platelets was counted with a micro cell counter. A suspension adjusted to contain the platelets at a final concentration of 5×10^8/ml was warmed at 37° C., then subjected to the pre-treatment with 3-isobutyl-1-methylxanthine (0.5 mM) for 5 min. To the suspension was added a test compound diluted at various concentration, and 10 minutes later, 0.1 μM PGD2 was added to induce the reaction 2 minutes later, hydrochloric acid was added to terminate the reaction. The platelet was destroyed with an ultrasonic homogenizer. After centrifugation, the cAMP in the supernatant was determined by radioimmunoassay. PGD2 receptor antagonism of a drug was evaluated as follows: the inhibition rate regarding cAMP increased by the addition of PGD2 was determined at each concentration, and the concentration of the drug required for 50% inhibition (IC50) was calculated.

[6] = target: T2, PGD2 receptor; test: Binding activity to PGD2 receptor in human platelet membrane fraction ([3H]PGD2); parameters: The platelets were homogenized using a homogenizer (Ultra-Turrax) followed by centrifugation 3 times at 20,000 rpm; from tissue; host or cells: human platelet membrane fraction from blood of healthy volunteers
Method: Experiment 1 Binding activity to PGD2 Receptor
as §1
Blood was collected using a plastic syringe containing 3.8% sodium citrate from the vein of healthy volunteers (adult male and female), then put into a plastic test tube and mixed by slow-reversion. The sample was then centrifuged at 1800 rpm, for 10 min at room temperature, and the supernatant containing PRP (platelet-rich plasma) was collected. The PRP was recentrifuged at 2300 rpm, for 22 min at room temperature to obtain platelets. The platelets were homogenized using a homogenizer (Ultra-Turrax) followed by centrifugation 3 times at 20,000 rpm, 10 min at 4° C.. to obtain a platelet membrane fraction. After protein determination, the membrane fraction was adjusted to 2 mg/ml and preserved in a refrigerator at −80° C.. until using for the binding test.
(2) Binding to PGD2 Receptor
To a binding-reaction solution (50 mM Tris/HCl, pH 7.4, 5 mM MgCl2) (0.2 ml) were added the human platelet membrane fraction (0.1 mg) and 5 nM [^3H]PGD2 (115 Ci/mmol), and the mixture was reacted at 4° C. for 90 min. After the reaction, the mixture was filtered through a glass fiber filter paper and washed several times with cooled physiological saline, then the radioactivity retained on the filter paper was measured. The specific-binding ratio was calculated by subtracting the non-specific binding ratio which is the radioactivity similarly measured in the presence of 10 μM PGD2 from the total binding.

[7] = 10 mg/kg orally 1 hour before antigen challenge
[8] = 1 mg/kg orally 1 hour before antigen challenge
[9] = 30 mg/kg orally 1 hour before antigen challenge
[10] = Comparative Experiment 1, read-out: Experiment 3 Antaginistic activity against PGD2 receptor IC50
[11] = Comparative Experiment 1, read-out: Experiment 1 Antaginistic activity against PGD2 receptor IC50
[12] = 3 mg/kg orally 2 hours before antigen challenge
[13] = 10 mg/kg orally 2 hours before antigen challenge

Compound	Log PD200 [1, 7]	induction of bronchial hyperresponsiveness (in words) [1]	Eosinophils, inhibition % [2]	Total cells, inhibition % [2]	Cell number, Eosinophils [2]	Cell number, Total cells [2]	eosinophil infiltration (in words) [2]	Peak bronchoconstriction [3, 8]	Peak bronchoconstriction, inhibition % [3, 8]	antigen-induced bronchoconstriction (in words) [3]	IC50 [5, 10]	Log PD200 [1, 8]	IC50 [6, 11]	further results
CC1(C)[C@H]2C[C@H](C/C=C\CCCC(=O)O)[C@@H](NC(=O)c3csc4ccc(O)cc34)[C@@H]1C2 [Compound B-2]	1.17 ± 0.05	did not inhibit	43%	45%	4.49 ± 0.63 ×10^6 cells/animal	13.01 ± 1.58 ×10^6 cells/animal	significantly suppressed	36.5 ± 18.2 cm H2O	−20%	did not suppress				Peak bronchoconstriction [3, 9]: 51.8 ± 16.3 cm H2O; Peak bronchoconstriction, inhibition % [3, 9]: −71%
O=C(O)CCC/C=C\C[C@H]1[C@@H]2CC[C@@H](C2)[C@@H]1NC(=O)c1ccc(S(=O)(=O)n2cccc2)s1 [Compound I-1b, (5Z)-7-{(1R,2S,3S,4S)-3-[5-(pyrrol-1-ylsulfonyl)-thiophen-2-ylcarbonylamino]-bicyclo[2.2.1]hept-2-yl}-5-heptenoic acid]	1.52 ± 0.06**							47.4 ± 11.4 cm H2O	31%		1.3 nM	1.25 ± 0.05	4.3 nM	IC50 ([4]; 2 nM [3H](+)-S-145 sodium salt, room temperature, 90 min, read-out: Binding activity to TXA2 receptor in human platelet membrane fraction IC50): 3 nM; IC50 ([4]; Comparative Experiment 1, read-out: Experiment 2 Antaginistic activity against TXA2 receptor IC50): 3 nM; IC50 ([5]; 0.1 μM PGD2, read-out: Inhibitory activity for the increase of cAMP caused by PGD2 in human platelet IC50): 1.3 nM; Peak bronchoconstriction [3, 7]: 28.4 ± 12.9 cm H2O; Peak bronchoconstriction, inhibition % [3, 7]: 58%; IC50 ([6]; 5 nM [3H]PGD2, 4° C., 90 min, read-out: Binding activity to PGD2 receptor in human platelet membrane fraction IC50): 4.3 nM
O=C(O)CCC/C=C\C[C@H]1[C@@H]2CC[C@@H](C2)[C@@H]1NS(=O)(=O)c1ccccc1 [A]	1.61 ± 0.09**	suppressed	−18%	−18%	4.90 ± 0.73 ×10^6 cells/animal	13.78 ± 1.75 ×10^6 cells/animal	did not show any inhibitory actions			dramatically suppressed	> 10000 nM	1.29 ± 0.04	> 10000 nM	Peak bronchoconstriction [3, 12]: 55.3 ± 6.7 cm H2O; Peak bronchoconstriction, inhibition % [3, 12]: 7%; Peak bronchoconstriction [3, 13]: 18.8 ± 3.3 cm H2O; Peak bronchoconstriction, inhibition % [3, 13]: 68%

— patent publication US7105564B1, “Pharmaceutical composition comprising a dual antagonist against PGD2/TXA2 receptors having a [2.2.1] or [3.1.1] bicyclic skeleton” (Shionogi & Co., Ltd., priority 1999, dated 2006)
